Test results from patent US20250034159A1, “INHIBITORS OF EPIDERMAL GROWTH FACTOR RECEPTOR” (ORIC Pharmaceuticals, Inc., priority 2021, published 2025).

Key:
[1] = target: recombinant human EGFR L858R/C797S double mutant protein (Homo sapiens (Human), UniProt P00533, C797S/L858R); assay: Biological Activity Assay B: biochemical assay against EGFR L858R/C797S protein (EGFR LR/CS)
Protocol: In Row A of a 384-well polypropylene plate, was added 48 μL of DMSO. In wells A1 and A24, were added 12 μL of DMSO. […] To a well in Row A were added 12 μL of each 10 mM test compound stock (100% DMSO). […] The final intermediate dilution plate contained 4×16-point compound serial dilutions in assay buffer. The DMSO concentration was 10%. The intermediate compound dilution plate was transferred to the Bravo and the “5 uL dispense into ARP.pro” protocol was run. To the black low volume assay ready plates, were added 5 μL of 40 uM Phosphosens peptide sensor/4 mM ATP working solution to each well. […] To column 24, was added 10 μL of assay buffer. The final DMSO concentration was 2.5%. […] The plates were sealed with the TopSeal-A Plus plate seals. […] Set for 90 cycles with 120 second interval. […] The slope of each curve was constructed using Dotmatics in each well, and each IC50s was calculated using a 4-parameter fit model.

[2] = test system: BaF3_EGFR d19/CS cells; assay: Biological Activity Assay D: BaF3 cell proliferation assay, EGFR exon 19 deletion/C797S (BaF3 d19/CS); assay type: cell-based; conditions: Ba/F3 EGFR; BaF3_EGFR d19/CS cells, ~72 hours, CellTiter-Glo; read-out: BaF3 d19/CS IC50
[3] = test system: BaF3_EGFR LR/CS cells; assay: Biological Activity Assay D: BaF3 cell proliferation assay, EGFR L858R/C797S mutant (BaF3 LR/CS); assay type: cell-based; conditions: Ba/F3 EGFR; BaF3_EGFR LR/CS cells, ~72 hours, CellTiter-Glo; read-out: BaF3 LR/CS IC50
[4] = test system: Ba/F3_EGFR WT cells; assay: Biological Activity Assay D: BaF3 cell proliferation assay, EGFR wild-type (BaF3 WT); assay type: cell-based; conditions: Ba/F3 EGFR; Ba/F3_EGFR WT cells, ~72 hours, CellTiter-Glo; read-out: BaF3 WT IC50
[5] = target: recombinant human EGFR exon 19 deletion/C797S double mutant protein (Homo sapiens (Human), UniProt P00533, C797S/DEL746-750); assay: Biological Activity Assay C: biochemical assay against EGFR exon 19 deletion/C797S protein (EGFR d19/CS)
Procedure, shortened: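 Compounds were tested as 16-point serial dilutions (final DMSO 2.5%) with a Phosphosens peptide sensor/ATP working solution (40 uM/4 mM). The signal was read kinetically over 90 cycles at 120 s intervals. IC50s came from 4-parameter fits of per-well slopes.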

Sequence of recombinant human EGFR L858R/C797S double mutant protein (P00533 25-1210 C797S/L858R): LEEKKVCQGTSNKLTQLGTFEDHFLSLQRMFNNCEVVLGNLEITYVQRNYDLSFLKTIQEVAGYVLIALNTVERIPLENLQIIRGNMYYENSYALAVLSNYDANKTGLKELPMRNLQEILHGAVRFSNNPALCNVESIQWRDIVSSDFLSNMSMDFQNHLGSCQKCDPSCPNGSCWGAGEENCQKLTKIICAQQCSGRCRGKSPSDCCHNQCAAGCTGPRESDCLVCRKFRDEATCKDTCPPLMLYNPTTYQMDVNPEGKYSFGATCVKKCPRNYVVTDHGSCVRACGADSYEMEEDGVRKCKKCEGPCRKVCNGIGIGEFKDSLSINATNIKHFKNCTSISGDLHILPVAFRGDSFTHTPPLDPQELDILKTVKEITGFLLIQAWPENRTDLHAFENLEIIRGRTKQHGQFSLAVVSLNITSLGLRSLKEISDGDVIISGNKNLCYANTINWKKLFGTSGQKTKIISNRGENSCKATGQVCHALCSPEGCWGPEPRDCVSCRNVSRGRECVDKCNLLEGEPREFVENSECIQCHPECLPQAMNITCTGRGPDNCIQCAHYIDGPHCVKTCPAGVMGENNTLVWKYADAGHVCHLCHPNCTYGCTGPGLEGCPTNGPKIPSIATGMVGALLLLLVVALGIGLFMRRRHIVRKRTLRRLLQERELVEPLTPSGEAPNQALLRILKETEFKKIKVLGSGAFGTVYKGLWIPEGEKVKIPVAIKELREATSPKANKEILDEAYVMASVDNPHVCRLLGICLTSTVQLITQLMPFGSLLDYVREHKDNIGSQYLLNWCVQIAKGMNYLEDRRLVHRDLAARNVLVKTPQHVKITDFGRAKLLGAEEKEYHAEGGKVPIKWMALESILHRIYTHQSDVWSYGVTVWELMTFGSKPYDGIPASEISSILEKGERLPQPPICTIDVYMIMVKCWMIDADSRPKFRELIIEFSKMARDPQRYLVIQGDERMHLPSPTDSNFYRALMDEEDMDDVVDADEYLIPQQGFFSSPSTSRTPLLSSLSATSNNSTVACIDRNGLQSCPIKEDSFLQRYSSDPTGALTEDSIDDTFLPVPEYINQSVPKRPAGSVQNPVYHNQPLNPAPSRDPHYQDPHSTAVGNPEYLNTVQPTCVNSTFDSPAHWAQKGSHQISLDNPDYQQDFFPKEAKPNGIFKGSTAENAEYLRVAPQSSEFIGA
Sequence of recombinant human EGFR exon 19 deletion/C797S double mutant protein (P00533 other isoform, or with tags, fused parts or gaps C797S/del 1-668/del 746-750 limits assumed): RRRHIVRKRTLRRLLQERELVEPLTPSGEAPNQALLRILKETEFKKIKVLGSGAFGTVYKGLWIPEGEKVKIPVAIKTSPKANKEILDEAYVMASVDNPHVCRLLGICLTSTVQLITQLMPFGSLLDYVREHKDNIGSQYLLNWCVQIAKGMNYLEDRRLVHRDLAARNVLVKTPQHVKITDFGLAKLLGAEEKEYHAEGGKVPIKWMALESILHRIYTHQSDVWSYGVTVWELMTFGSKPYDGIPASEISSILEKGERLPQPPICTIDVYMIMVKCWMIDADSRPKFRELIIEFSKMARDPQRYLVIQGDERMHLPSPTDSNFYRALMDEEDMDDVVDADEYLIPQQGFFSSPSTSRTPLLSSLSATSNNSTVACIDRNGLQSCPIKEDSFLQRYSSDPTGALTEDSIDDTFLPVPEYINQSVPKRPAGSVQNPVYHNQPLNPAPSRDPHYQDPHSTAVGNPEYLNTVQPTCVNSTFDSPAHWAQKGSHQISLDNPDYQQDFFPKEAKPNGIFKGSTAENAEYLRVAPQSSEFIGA

IC50 [1] [nM]	IC50 [2] [nM]	IC50 [3] [nM]	IC50 [4] [nM]	IC50 [5] [nM]	SMILES
0.462	40.8	122	2130	0.538	O=S1(=O)CCC(Cn2cc(-c3ncnc4oc(-c5ccccc5)cc34)c(-c3ccc(F)cc3)n2)C1 (racemic) [Example 53, 3-{[3-(4-fluorophenyl)-4-(6-phenylfuro[2,3-d]pyrimidin-4-yl)-1H-pyrazol-1-yl]methyl}-1λ6-thiolane-1,1-dione]
0.58	33.8	27.5	1860	0.39	Fc1ccc(-c2nn(C3CCOC3)cc2-c2ncnc3oc(-c4ccccc4)cc23)cc1 (racemic) [Example 85, 4-[3-(4-Fluorophenyl)-1-(oxolan-3-yl)-1H-pyrazol-4-yl]-6-phenylfuro[2,3-d]pyrimidine]
0.38	20.4	19.9	373	0.3	CS(=O)(=O)N1CCC(n2cc(-c3ncnc4oc(-c5ccccc5)cc34)c(-c3ccc(F)cc3)n2)C1 (racemic) [Example 89, 4-{3-(4-fluorophenyl)-1-[1-(methanesulfonyl)pyrrolidin-3-yl]-1H-pyrazol-4-yl}-6-phenylfuro[2,3-d]pyrimidine]
0.41	110	31.6	703	0.31	O=S1(=O)CCCC(Cn2cc(-c3ncnc4oc(-c5ccccc5)cc34)c(-c3ccc(F)cc3)n2)C1 (racemic) [Example 115, 3-{[3-(4-Fluorophenyl)-4-(6-phenylfuro[2,3-d]pyrimidin-4-yl)-1H-pyrazol-1-yl]methyl}-1λ6-thiane-1,1-dione]
0.65	24.2	26.1	1340	0.36	O=S1(=O)CC[C@@H](n2cc(-c3ncnc4oc(-c5ccccc5)cc34)c(-c3ccc(F)cc3)n2)C1 (single isomer, unassigned) [Example 72]
0.77	56	80.9	2490	0.48	O=S1(=O)CC[C@H](n2cc(-c3ncnc4oc(-c5ccccc5)cc34)c(-c3ccc(F)cc3)n2)C1 (single isomer, unassigned) [Example 73]
0.51	64.9	36.2	1510	0.24	Fc1ccc(-c2nn([C@@H]3CCOC3)cc2-c2ncnc3oc(-c4ccccc4)cc23)cc1 (single isomer, unassigned) [Example 90]
0.37	39.9	23.8	1280	0.23	Fc1ccc(-c2nn([C@H]3CCOC3)cc2-c2ncnc3oc(-c4ccccc4)cc23)cc1 (single isomer, unassigned) [Example 91]
0.39	150	73.8	1480	0.62	O=S1(=O)CC[C@H](Cn2cc(-c3ncnc4oc(-c5ccccc5)cc34)c(-c3ccc(F)cc3)n2)C1 (single isomer, unassigned) [Example 96]
0.33	79.4	39.2	1190	0.34	O=S1(=O)CC[C@@H](Cn2cc(-c3ncnc4oc(-c5ccccc5)cc34)c(-c3ccc(F)cc3)n2)C1 (single isomer, unassigned) [Example 97]
5.7	701	822	> 20000	8.51	O=S1(=O)CCC[C@@H](n2cc(-c3ncnc4oc(-c5ccccc5)cc34)c(-c3ccc(F)cc3)n2)C1 (single isomer, unassigned) [Example 99]
2.76	319	407	13300	4.23	O=S1(=O)CCC[C@H](n2cc(-c3ncnc4oc(-c5ccccc5)cc34)c(-c3ccc(F)cc3)n2)C1 (single isomer, unassigned) [Example 100]
0.39	4.96	8.69	115	0.27	CS(=O)(=O)N1CC[C@@H](n2cc(-c3ncnc4oc(-c5ccccc5)cc34)c(-c3ccc(F)cc3)n2)C1 (single isomer, unassigned) [Example 101]
0.35	16.5	21.1	161	0.2	CS(=O)(=O)N1CC[C@H](n2cc(-c3ncnc4oc(-c5ccccc5)cc34)c(-c3ccc(F)cc3)n2)C1 (single isomer, unassigned) [Example 102]
3.15	169	130	808	1.66	OCCCc1nc(-c2ccc(F)cc2)n(-c2ccnc3[nH]c(-c4ccccc4)cc23)n1 [Example 3, 3-[5-(4-Fluorophenyl)-1-(2-phenyl-1H-pyrrolo[2,3-b]pyridin-4-yl)-1H-1,2,4-triazol-3-yl]propan-1-ol]
1.29	36.4	32.1	1400	0.466	OCCCn1cc(-c2ccnc3[nH]c(-c4ccccc4)nc23)c(-c2ccc(F)cc2)n1 [Example 4, 3-[3-(4-Fluorophenyl)-4-(2-phenyl-3H-imidazo[4,5-b]pyridin-7-yl)-1H-pyrazol-1-yl]propan-1-ol]
1.2	90.6	80.3	2430	0.45	OCCCn1cc(-c2ncnc3oc(-c4ccccc4)nc23)c(-c2ccc(F)cc2)n1 [Example 5, 3-[3-(4-Fluorophenyl)-4-(2-phenyl[1,3]oxazolo[5,4-d]pyrimidin-7-yl)-1H-pyrazol-1-yl]propan-1-ol]
5.49	723	203		2.25	OCCCn1cc(-c2ncnc3sc(-c4ccccc4)cc23)c(-c2ccc(F)cc2)n1 [Example 68, 3-[3-(4-fluorophenyl)-4-(6-phenylthieno[2,3-d]pyrimidin-4-yl)-1H-pyrazol-1-yl]propan-1-ol]
6.38	388	143		3.25	Fc1ccc(-c2nn(C3COC3)cc2-c2ncnc3oc(-c4ccccc4)nc23)cc1 [Example 80, 7-[3-(4-fluorophenyl)-1-(oxetan-3-yl)-1H-pyrazol-4-yl]-2-phenyl[1,3]oxazolo[5,4-d]pyrimidine]
	40.7	62.9	1980	0.307	Cc1nc(-c2cc3c(-c4cn(CC(C)(C)O)nc4-c4ccc(F)cc4)ncnc3o2)ccc1F [Example 282, 1-{4-[6-(5-fluoro-6-methylpyridin-2-yl)furo[2,3-d]pyrimidin-4-yl]-3-(4-fluorophenyl)-1H-pyrazol-1-yl}-2-methylpropan-2-ol]
	9.47	9.79	657	0.113	CC(C)(O)Cn1cc(-c2ncnc3oc(-c4cccnc4O)cc23)c(-c2ccc(F)cc2)n1 [Example 283, 3-{4-[3-(4-fluorophenyl)-1-(2-hydroxy-2-methylpropyl)-1H-pyrazol-4-yl]furo[2,3-d]pyrimidin-6-yl}pyridin-2-ol]
	10.2	11.2	1000	0.203	CC(C)(O)Cn1cc(-c2ncnc3oc(-c4cnn5c4OCCC5(C)C)cc23)c(-c2ccc(F)cc2)n1 [Example 284, 1-(4-(6-(7,7-dimethyl-6,7-dihydro-5H-pyrazolo[5,1-b][,3]oxazin-3-yl)furo[2,3-d]pyrimidin-4-yl)-3-(4-fluorophenyl)-1H-pyrazol-1-yl)-2-methylpropan-2-ol]
	3.75	4.86	321	0.228	COc1ncccc1-c1cc2c(-c3cn(CCC#N)nc3-c3ccc(F)cc3)ncnc2o1 [Example 285, 3-{3-(4-fluorophenyl)-4-[6-(2-methoxypyridin-3-yl)furo[2,3-d]pyrimidin-4-yl]-1H-pyrazol-1-yl}propanenitrile]
	15.8	20.1	1110	0.203	COc1ncccc1-c1cc2c(-c3cn(CC(F)(F)CO)nc3-c3ccc(F)cc3)ncnc2o1 [Example 286, 2,2-difluoro-3-{3-(4-fluorophenyl)-4-[6-(2-methoxypyridin-3-yl)furo[2,3-d]pyrimidin-4-yl]-1H-pyrazol-1-yl}propan-1-ol]
	8.85	8.63	613	0.213	Oc1ncccc1-c1cc2c(-c3cn([C@H]4C[C@@H](F)C4)nc3-c3ccc(F)cc3)ncnc2o1 [Example 287, 3-(4-{1-[(1s,3s)-3-fluorocyclobutyl]-3-(4-fluorophenyl)-1H-pyrazol-4-yl}furo[2,3-d]pyrimidin-6-yl)pyridin-2-ol]
